Assay results taken from US8592172B2, “Bioluminescent assays using cyanobenzothiazole compounds” (Promega Corporation, priority 2010, dated 2013).

Key:
UGT 1A4 = target: T1, UGT 1A4 (Homo sapiens, UniProt P22310); test: Recombinant UGT panel, substrate utilization; format: biochemical; conditions: 2 hour incubation at 37° C., recombinant Supersomes
T1 construct: purchased BD Gentest; host or cells: insect cells (microsomes)
T1 sequence (P22310 29-534): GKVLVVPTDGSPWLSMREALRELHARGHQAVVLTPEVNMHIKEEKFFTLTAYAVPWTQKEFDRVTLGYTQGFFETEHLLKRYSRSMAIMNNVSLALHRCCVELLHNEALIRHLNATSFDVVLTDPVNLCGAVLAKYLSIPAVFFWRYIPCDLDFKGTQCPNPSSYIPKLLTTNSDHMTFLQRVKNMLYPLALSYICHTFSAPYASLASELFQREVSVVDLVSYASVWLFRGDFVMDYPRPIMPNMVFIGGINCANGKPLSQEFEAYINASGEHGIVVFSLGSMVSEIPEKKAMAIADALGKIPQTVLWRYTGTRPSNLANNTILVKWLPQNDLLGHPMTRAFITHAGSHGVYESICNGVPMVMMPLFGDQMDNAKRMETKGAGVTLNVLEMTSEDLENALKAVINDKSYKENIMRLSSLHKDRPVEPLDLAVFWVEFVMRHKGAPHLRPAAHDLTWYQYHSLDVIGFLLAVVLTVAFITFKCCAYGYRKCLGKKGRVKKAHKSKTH
Protocol: (§1) During this incubation, the cysteine reacts with the cyanobenzathiozole substrate to yield a D-luciferin derivative. […] Therefore, activity of the UGT enzyme can be measured by analyzing the difference (lower or no output) in relative light units (RLU) of a sample in which glucuronidation occurs compared to a sample that was run under the same conditions with no added UDPGA cofactor.
(§2) In this example, a series of 12 recombinant UGTs expressed in insect microsomes (Supersomes™, BD Gentest™), as well as the control microsomes not expressing the UGT enzyme, were incubated with compound 3138, compound 3478, or compound 3165 as substrates, with or without the UDPGA co-factor.
(§3) After addition of a luciferin detection reagent (LDR) containing D-cysteine, both the substrate and the product were converted to D-luciferins (compound 3478 is already a luciferin derivative before addition of the LDR).
(§4) Reactions were assembled in a white, 96-well plate. Each well contained 20 μL of reaction mixture comprised of 100 mM TES, pH 7.5, 16 mM MgCl2, 50 μg/mL alamethicin (Sigma), 60 μM compound 3138 or compound 3478, and 0.4 mg/mL of control or recombinant UGT membranes. The reactions were initiated by addition of 20 μL of water or 8 mM triammonium UDPGA (Sigma) to each well. The plate was mixed, sealed, and incubated in a 37° C. water bath for 2 hours. After the incubation, 40 μL P450-Glo LDR (Promega) with 20 mM D-cysteine-HCl.H2O (Sigma) was added to each well, the plate was mixed and allowed to incubate at room temperature for 20 minutes. After the incubation was completed, the plate was read on a Veritas™ luminometer (Turner BioSystems, Inc.; Sunnyvale, Calif.).
(§5) For each isozyme, the bioluminescence from the replicates containing UDPGA were subtracted from the average bioluminescence of the replicates without UDPGA. The average Δ RLU value obtained and the standard deviation of the replicates were then divided by the average bioluminescence for samples without UDPGA to obtain the % utilization for each isozyme. The % utilization obtained from the control microsomes was then subtracted from each isozyme to give the background corrected utilization data for those isozymes.

UGT 1A9 = target: T2, UGT 1A9 (Homo sapiens, UniProt O60656); test: Recombinant UGT panel, substrate utilization; format: biochemical; conditions: 2 hour incubation at 37° C., recombinant Supersomes, background corrected
T2 construct: purchased BD Gentest; host or cells: insect cells (microsomes)
T2 sequence (O60656 26-530): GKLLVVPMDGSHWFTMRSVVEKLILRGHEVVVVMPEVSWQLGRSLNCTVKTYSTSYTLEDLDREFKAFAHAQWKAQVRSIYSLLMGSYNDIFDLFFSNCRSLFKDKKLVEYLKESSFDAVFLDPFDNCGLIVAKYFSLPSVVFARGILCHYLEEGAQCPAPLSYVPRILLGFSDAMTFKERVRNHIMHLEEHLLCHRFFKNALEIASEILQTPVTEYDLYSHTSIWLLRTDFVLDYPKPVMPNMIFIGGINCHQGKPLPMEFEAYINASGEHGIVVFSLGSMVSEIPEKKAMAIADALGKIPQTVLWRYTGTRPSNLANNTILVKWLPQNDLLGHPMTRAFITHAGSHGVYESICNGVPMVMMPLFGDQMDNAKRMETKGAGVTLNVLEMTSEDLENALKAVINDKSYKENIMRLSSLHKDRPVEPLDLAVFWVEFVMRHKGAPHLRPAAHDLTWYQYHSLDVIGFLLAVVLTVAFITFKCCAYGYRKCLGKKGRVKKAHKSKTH
Protocol: as §1, §2, §3, §4, §5

human liver microsomes = test: Utilization of compound 3165 by human microsomes; format: biochemical; conditions: 50 μM compound 3165, 0.2 mg/mL microsomes, 2 hours at 37° C.
Protocol: (§6) The ability of endogenously expressed UGT isozymes to utilize compounds 3138 and 3165 as substrates was determined in a similar manner to the assays with recombinant microsomes (Example 1). […] Tissue microsomes were obtained from Xenotech LLC or BD Gentest. Addition of P450-Glo LDR plus cysteine and data analysis was performed in the same manner as for the recombinant Supersome panel screen (Example 1 above).

rat liver microsomes = test: Utilization of compound 3165 by rat liver microsomes; format: biochemical; conditions: 50 μM compound 3165, 0.2 mg/mL microsomes, 2 hours at 37° C.
Protocol: as §6

mouse liver microsomes = test: Utilization of compound 3165 by mouse liver microsomes; format: biochemical; conditions: 50 μM compound 3165, 0.2 mg/mL microsomes, 2 hours at 37° C.
Protocol: as §6

UGT 2B15 = target: T3, UGT 2B15 (Homo sapiens, UniProt P54855); test: Recombinant UGT panel, substrate utilization; format: biochemical; conditions: 2 hour incubation at 37° C., recombinant Supersomes
T3 construct: purchased BD Gentest; host or cells: insect cells (microsomes)
Protocol: as §1, §2, §3, §4, §5

UGT 1A1 = target: T4, UGT 1A1 (Homo sapiens, UniProt P22309); test: Recombinant UGT panel, substrate utilization; format: biochemical; conditions: 2 hour incubation at 37° C., recombinant Supersomes, background corrected
T4 construct: purchased BD Gentest; host or cells: insect cells (microsomes)
T4 sequence (P22309 26-533): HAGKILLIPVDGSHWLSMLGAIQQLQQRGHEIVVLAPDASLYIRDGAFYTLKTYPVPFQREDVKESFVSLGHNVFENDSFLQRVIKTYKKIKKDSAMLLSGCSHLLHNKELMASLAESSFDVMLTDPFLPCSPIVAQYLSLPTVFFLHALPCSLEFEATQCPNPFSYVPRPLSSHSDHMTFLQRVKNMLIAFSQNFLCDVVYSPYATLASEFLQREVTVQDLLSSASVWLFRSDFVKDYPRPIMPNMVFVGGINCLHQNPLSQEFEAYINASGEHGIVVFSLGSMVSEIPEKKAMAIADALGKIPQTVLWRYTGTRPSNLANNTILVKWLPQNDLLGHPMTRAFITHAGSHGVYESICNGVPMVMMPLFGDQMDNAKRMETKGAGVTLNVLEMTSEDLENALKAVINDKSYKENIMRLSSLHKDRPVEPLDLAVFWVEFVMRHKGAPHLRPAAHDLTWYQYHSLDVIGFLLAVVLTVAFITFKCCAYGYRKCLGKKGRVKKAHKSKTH
Protocol: as §1, §2, §3, §4, §5

UGT 2B4 = target: T5, UGT 2B4 (Homo sapiens, UniProt P06133); test: Recombinant UGT panel, substrate utilization; format: biochemical; conditions: 2 hour incubation at 37° C., recombinant Supersomes
T5 construct: purchased BD Gentest; host or cells: insect cells (microsomes)
Protocol: as §1, §2, §3, §4, §5

UGT 1A3 = target: T6, UGT 1A3 (Homo sapiens, UniProt P35503); test: Recombinant UGT panel, substrate utilization; format: biochemical; conditions: 2 hour incubation at 37° C., recombinant Supersomes
T6 construct: purchased BD Gentest; host or cells: insect cells (microsomes)
Protocol: as §1, §2, §3, §4, §5

UGT 1A7 = target: T7, UGT 1A7 (Homo sapiens, UniProt Q9HAW7); test: Recombinant UGT panel, substrate utilization; format: biochemical; conditions: 2 hour incubation at 37° C., recombinant Supersomes
T7 construct: purchased BD Gentest; host or cells: insect cells (microsomes)
Protocol: as §1, §2, §3, §4, §5

UGT 1A8 = target: T8, UGT 1A8 (Homo sapiens, UniProt Q9HAW9); test: Recombinant UGT panel, substrate utilization; format: biochemical; conditions: 2 hour incubation at 37° C., recombinant Supersomes, background corrected
T8 construct: purchased BD Gentest; host or cells: insect cells (microsomes)
Protocol: as §1, §2, §3, §4, §5

UGT 1A6 = target: T9, UGT 1A6 (Homo sapiens, UniProt P19224); test: Recombinant UGT panel, substrate utilization; format: biochemical; conditions: 2 hour incubation at 37° C., recombinant Supersomes
T9 construct: purchased BD Gentest; host or cells: insect cells (microsomes)
Protocol: as §1, §2, §3, §4, §5

UGT 1A10 = target: T10, UGT 1A10 (Homo sapiens, UniProt Q9HAW8); test: Recombinant UGT panel, substrate utilization; format: biochemical; conditions: 2 hour incubation at 37° C., recombinant Supersomes, background corrected
T10 construct: purchased BD Gentest; host or cells: insect cells (microsomes)
Protocol: as §1, §2, §3, §4, §5

UGT 2B17 = target: T11, UGT 2B17 (Homo sapiens, UniProt O75795); test: Recombinant UGT panel, substrate utilization; format: biochemical; conditions: 2 hour incubation at 37° C., recombinant Supersomes
T11 construct: purchased BD Gentest; host or cells: insect cells (microsomes)
Protocol: as §1, §2, §3, §4, §5

[1] = test system: endogenously expressed UGT isozymes in mammalian microsomes; test: Utilization of compound 3138 by mammalian tissue microsomes; format: biochemical; conditions: 50 μM compound 3138, 0.1 mg/mL mammalian microsomes, 15 minutes at 37° C.
Protocol: as §6

[2] = test system: UGT isozymes in human hepatocytes; conditions: compound 3138, 15-20 minutes at 37° C.
UGT 2B7 = UGT 2B7 (Homo sapiens, UniProt P16662); test: Recombinant UGT panel, substrate utilization; format: biochemical; parameters: purchased BD Gentest; host or cells: insect cells (microsomes); conditions: 2 hour incubation at 37° C., recombinant Supersomes, background corrected
Protocol: as §1, §2, §3
Reactions were assembled in a white, 96-well plate. Each well contained 20 μL of reaction mixture comprised of 100 mM TES, pH 7.5, 16 mM MgCl2, 50 μg/mL alamethicin (Sigma), 60 μM compound 3138 or compound 3478, and 0.4 mg/mL of control or recombinant UGT membranes. The reactions were initiated by addition of 20 μL of water or 8 mM triammonium UDPGA (Sigma) to each well. […] After the incubation was completed, the plate was read on a Veritas™ luminometer (Turner BioSystems, Inc.; Sunnyvale, Calif.). […]

T5 sequence (P06133 24-528): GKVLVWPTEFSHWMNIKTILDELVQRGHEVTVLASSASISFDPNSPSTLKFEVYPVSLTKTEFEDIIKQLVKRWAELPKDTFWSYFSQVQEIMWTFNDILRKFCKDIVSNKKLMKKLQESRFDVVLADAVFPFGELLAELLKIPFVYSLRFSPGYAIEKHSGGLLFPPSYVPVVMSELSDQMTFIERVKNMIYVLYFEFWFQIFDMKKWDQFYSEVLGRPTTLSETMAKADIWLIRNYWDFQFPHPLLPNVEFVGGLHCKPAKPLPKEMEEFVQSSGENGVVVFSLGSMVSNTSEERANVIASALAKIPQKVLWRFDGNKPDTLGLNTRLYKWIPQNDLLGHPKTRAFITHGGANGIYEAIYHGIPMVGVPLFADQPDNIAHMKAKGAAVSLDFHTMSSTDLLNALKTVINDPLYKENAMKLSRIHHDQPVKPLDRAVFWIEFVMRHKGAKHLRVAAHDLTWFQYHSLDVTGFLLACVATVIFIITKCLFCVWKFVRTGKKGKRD
T10 sequence (Q9HAW8 26-530): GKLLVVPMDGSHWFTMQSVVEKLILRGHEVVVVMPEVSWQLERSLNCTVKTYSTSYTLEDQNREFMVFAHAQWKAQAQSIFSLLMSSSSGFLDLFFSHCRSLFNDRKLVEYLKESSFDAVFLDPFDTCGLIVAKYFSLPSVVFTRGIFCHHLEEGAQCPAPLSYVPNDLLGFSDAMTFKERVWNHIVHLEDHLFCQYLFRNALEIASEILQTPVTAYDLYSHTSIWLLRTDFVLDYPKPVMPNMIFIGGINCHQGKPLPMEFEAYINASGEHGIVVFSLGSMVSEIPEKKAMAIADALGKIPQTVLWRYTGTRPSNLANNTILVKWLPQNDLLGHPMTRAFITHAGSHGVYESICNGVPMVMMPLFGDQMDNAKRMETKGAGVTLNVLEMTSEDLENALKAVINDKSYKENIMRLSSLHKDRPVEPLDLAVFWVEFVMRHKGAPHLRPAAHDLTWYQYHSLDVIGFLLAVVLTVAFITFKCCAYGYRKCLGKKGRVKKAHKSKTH
UGT 2B7, sequence (P16662 24-529): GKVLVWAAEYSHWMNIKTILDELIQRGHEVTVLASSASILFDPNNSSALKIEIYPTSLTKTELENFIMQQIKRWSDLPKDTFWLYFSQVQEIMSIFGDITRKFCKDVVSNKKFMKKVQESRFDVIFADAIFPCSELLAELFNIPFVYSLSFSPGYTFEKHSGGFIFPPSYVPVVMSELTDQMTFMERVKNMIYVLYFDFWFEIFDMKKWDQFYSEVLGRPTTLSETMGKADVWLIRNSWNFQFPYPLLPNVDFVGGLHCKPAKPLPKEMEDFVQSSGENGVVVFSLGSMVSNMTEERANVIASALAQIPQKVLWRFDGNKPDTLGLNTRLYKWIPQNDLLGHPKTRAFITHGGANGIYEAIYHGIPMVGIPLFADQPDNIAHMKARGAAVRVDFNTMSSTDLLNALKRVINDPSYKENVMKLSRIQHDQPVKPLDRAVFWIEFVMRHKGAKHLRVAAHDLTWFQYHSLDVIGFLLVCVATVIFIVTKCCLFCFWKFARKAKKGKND
T9 sequence (P19224 27-532): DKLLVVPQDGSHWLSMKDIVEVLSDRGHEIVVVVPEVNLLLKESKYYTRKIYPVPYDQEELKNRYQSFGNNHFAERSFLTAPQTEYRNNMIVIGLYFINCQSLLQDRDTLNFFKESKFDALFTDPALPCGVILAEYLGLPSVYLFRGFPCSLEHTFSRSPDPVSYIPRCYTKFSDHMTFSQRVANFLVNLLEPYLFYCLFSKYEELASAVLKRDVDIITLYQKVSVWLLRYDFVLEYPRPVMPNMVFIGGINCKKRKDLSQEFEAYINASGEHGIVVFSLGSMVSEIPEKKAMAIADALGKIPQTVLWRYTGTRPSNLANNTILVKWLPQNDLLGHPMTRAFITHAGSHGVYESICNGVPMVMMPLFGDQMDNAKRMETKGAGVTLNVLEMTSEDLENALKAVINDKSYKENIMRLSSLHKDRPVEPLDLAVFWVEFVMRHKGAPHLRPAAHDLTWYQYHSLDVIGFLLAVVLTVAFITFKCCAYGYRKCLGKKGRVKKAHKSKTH
T7 sequence (Q9HAW7 26-530): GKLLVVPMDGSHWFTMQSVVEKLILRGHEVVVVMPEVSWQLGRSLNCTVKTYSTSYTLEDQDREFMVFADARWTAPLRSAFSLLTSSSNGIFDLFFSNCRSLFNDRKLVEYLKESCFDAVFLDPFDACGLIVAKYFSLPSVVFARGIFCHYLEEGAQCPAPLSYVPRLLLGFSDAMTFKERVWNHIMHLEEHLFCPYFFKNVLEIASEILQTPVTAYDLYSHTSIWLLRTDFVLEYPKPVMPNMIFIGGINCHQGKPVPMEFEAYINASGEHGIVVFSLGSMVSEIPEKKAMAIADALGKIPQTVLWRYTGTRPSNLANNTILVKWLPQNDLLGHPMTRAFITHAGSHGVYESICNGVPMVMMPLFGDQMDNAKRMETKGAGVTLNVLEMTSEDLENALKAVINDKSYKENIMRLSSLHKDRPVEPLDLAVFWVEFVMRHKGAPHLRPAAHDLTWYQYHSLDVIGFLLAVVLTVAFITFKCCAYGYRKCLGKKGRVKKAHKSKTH
T6 sequence (P35503 29-534): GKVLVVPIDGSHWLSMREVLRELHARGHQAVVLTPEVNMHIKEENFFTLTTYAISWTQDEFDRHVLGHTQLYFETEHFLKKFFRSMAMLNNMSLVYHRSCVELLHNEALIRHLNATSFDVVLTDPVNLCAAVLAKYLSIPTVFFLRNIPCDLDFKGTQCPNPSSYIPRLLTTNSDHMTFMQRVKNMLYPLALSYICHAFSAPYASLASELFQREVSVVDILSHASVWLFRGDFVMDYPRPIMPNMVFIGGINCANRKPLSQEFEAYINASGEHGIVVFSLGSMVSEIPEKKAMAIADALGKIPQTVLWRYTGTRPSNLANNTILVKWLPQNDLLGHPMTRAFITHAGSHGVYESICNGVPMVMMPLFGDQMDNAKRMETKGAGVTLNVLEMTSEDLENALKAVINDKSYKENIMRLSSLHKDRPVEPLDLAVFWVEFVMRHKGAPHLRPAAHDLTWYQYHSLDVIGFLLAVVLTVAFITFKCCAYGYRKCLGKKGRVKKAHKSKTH
T8 sequence (Q9HAW9 26-530): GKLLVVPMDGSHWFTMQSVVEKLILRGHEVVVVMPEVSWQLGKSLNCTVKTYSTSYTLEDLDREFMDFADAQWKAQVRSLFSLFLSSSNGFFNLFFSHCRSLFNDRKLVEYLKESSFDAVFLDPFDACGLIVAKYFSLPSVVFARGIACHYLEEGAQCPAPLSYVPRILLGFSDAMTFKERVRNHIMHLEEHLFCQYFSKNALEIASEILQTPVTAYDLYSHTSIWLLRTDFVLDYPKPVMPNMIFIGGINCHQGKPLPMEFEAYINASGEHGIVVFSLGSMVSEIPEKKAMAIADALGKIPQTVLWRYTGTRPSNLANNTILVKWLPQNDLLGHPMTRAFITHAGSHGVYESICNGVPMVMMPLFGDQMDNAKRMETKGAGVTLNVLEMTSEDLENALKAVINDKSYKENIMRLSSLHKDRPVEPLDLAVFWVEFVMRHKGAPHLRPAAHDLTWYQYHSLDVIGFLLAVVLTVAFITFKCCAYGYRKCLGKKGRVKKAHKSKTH
T3 sequence (P54855 24-530): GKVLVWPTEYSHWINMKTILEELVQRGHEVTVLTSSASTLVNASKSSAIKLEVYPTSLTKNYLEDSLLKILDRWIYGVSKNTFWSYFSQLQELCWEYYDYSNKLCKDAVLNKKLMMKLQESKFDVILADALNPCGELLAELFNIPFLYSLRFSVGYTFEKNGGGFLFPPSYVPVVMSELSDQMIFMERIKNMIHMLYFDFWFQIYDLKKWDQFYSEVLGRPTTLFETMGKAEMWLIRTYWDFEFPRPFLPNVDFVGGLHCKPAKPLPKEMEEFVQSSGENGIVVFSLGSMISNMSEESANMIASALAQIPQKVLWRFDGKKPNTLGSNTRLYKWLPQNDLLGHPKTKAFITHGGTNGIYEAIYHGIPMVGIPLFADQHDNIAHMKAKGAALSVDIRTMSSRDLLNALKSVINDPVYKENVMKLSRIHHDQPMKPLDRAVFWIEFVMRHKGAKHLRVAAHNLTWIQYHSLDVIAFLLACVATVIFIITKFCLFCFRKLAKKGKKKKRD
T11 sequence (O75795 24-530): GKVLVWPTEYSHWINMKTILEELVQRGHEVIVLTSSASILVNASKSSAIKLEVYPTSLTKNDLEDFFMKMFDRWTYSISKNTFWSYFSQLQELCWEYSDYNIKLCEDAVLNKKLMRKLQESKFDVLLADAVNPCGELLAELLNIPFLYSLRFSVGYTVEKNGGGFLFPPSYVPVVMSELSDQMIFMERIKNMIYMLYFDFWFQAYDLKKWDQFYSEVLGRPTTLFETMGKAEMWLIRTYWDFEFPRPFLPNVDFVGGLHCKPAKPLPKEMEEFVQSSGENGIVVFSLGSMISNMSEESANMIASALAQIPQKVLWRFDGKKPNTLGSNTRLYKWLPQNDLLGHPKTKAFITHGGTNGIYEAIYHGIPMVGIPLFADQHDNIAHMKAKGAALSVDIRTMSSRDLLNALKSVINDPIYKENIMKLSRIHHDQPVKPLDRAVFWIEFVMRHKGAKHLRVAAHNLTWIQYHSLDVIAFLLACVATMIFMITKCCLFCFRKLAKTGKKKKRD

| SMILES | utilization of substrate by UGT 1A4 (UGT 1A4) | % utilization of substrate by UGT 1A9 (UGT 1A9) | utilization (activity) with human liver microsomes versus human renal or intestinal microsomes (human liver microsomes) | utilization (activity) with rat liver microsomes (rat liver microsomes) | utilization (activity) with mouse liver microsomes (mouse liver microsomes) | utilization of substrate by UGT 2B15 (UGT 2B15) | % utilization of substrate by UGT 1A1 (UGT 1A1) | utilization of substrate by UGT 2B4 (UGT 2B4) | utilization of substrate by UGT 1A3 (UGT 1A3) | utilization of substrate by UGT 1A7 (UGT 1A7) | % utilization of substrate by UGT 1A8 (UGT 1A8) | utilization of substrate by UGT 1A6 (UGT 1A6) | % utilization of substrate by UGT 1A10 (UGT 1A10) | utilization of substrate by UGT 2B17 (UGT 2B17) | utilization by tissue microsomes compared with control 1A1 Supersomes [1] | conversion of substrate by intact hepatocytes [2] | % utilization of substrate by UGT 2B7 (UGT 2B7) |
| --- | --- | --- | --- | --- | --- | --- | --- | --- | --- | --- | --- | --- | --- | --- | --- | --- | --- |
| N#Cc1nc2ccc(NCc3cccc(N)c3)cc2s1 [Compound 3165] | only utilized by UGT 1A4 | to a lesser extent | Activity was much higher for human liver microsomes | Activity was also seen | Activity was also seen |  |  |  |  |  |  |  |  |  |  |  |  |
| Cc1cc(O)cc2sc(C#N)nc12 [Compound 3138] | did not utilize either compound 3138 or 3478 to an appreciable extent | over 50% |  |  |  | detectable levels of utilization above background | over 50% | did not utilize either compound 3138 or 3478 to an appreciable extent | detectable levels of utilization above background | detectable levels of utilization above background | over 50% | detectable levels of utilization above background | over 50% | detectable levels of utilization above background | utilized much more of compound 3138 than the control 1A1 Supersomes | Conversion of the PBI 3138 was seen | over 50% |
